Source: publication PMC9880178, “Cecropin D-derived synthetic peptides in the fight against Candida albicans cell filamentation and biofilm formation” (Frontiers in Microbiology, 2023)
Read-outs that look alike come from different tables or passages of the source. Where no end group is shown, it is not given here.

Columns and labels:
C. albicans cells = assay: microbe, parasite or virus in culture; details: for IC90: 24 h; for FICI: combination of peptide with caspofungin
Procedure: To determine the viability of C. albicans, the 2,3-bis(2-methoxy-4-nitro-5-sulfo-phenyl)-2H-tetrazolium-5-carboxanilide (XTT) (ThermoFisher Scientific) reduction assay is used as a routine tool for quantitative measurement of fungal metabolic activity, growth and response to antifungal treatment ([van Dijck et al., 2018]). The tests were performed as described ([Kulig et al., 2022]) with some modifications. Briefly, 100 μl of RPMI 1640 medium without phenol red (Biowest) and 50 μl of XTT solution (1 mg/ml; Invitrogen, Waltham, MA, United States), freshly activated with phenazine methosulfate (5 μg/ml; Sigma-Aldrich) in the same medium, were added to C. albicans cells. After 40 min of incubation at 37°C in the dark, 100 μl of supernatants were transferred to the wells of a new 96-well microplate (Sarstedt, Nümbrecht, Germany). The absorbance of the formazan product was measured spectrophotometrically at 450 nm using a Synergy H1 microplate reader (BioTek Instruments, Winooski, VT, United States).
The following concentrations of peptides and antifungal drugs were used for the assay: ΔM3 0.4–50 μM, ΔM4 0.4–3.1 μM, amphotericin B 0.2–1.6 μM, fluconazole 0.2–1.6 μM and caspofungin 0.003–0.2 μM (the latter two from Sigma-Aldrich). The combinatory effects of each peptide and each conventional antimycotic drug were tested by the previously described checkerboard method ([Guo et al., 2008]; [Do Nascimento Dias et al., 2020]) with minor modification. C. albicans cells (3 × 10^2) were suspended in 100 μl of RPMI 1640 medium, containing peptide, drug, or their combination, in wells of Falcon® 96-well clear flat bottom TC-treated culture microplate (Corning). Fungal cells only in RPMI 1640 medium without peptides and drugs served as a control. Incubation was carried out for 24 h at 37°C in an atmosphere of 5% CO2 and 95% humidity without shaking. After this time, cell viability was measured using an XTT reduction assay. The analysis was performed in biological triplicate. For each combination, Fractional Inhibitory Concentration Index (FICI) was determined using the following formula: […]
Where FICa is the ratio of IC90 value for the compound a in combination to the IC90 value of the agent a alone; FICb is the ratio of IC90 value for compound b in combination to the IC90 value of the agent b alone.
The FICI ≤0.5 was interpreted as a synergistic effect, 0.5< FICI ≤1.0 as additive, 1.0< FICI ≤2.0 as indifferent and FICI >2.0 as antagonism.

[1] = test system: mitochondria of C. albicans biofilm cells; assay: Mitochondrial activity, MitoTracker Orange / MitoTracker Green; format: cell-based, Candida albicans; details: 50 μM ΔM3, 6.2 μM ΔM4 or 2.7 μM amphotericin B, 3 h, 24-h biofilm
Procedure: The 24-h biofilms of C. albicans were incubated with 100 μl of ΔM3 (50 μM) or ΔM4 (6.2 μM) and amphotericin B (2.7 μM; positive control) solutions in RPMI 1640 medium for 3 h at 37°C. After that time, biofilms were washed with 200 μl of PBS and incubated for 30 min at 37°C with MitoTracker Green TM dye (Invitrogen) at final concentration of 500 nM, used to detect the change in total mitochondrial mass, and MitoTracker Orange (500 nM), used to detect the change in mitochondrial activity. Mitochondria were imaged in the FITC and TRIC channel, using the Olympus IX73 microscope.

human erythrocytes = details: cited from earlier work
From the text: Promising antimicrobial properties were also previously reported for the cecropin D-like peptide (UniProtKB accession number: P85210) from the greater wax moth Galleria mellonella ([Cytrynska et al., 2007]). Modification of particular residues resulting in an increase of peptide charge and basic residues on the polar face of the molecule compared to a neutral wild-type peptide, enhanced the antibacterial activity of peptides derived from the cecropin D-like natural sequence. One such type of derivative was the synthetic cationic peptide ΔM2 with 39 amino acid residues and a charge of +9, which ...

[2] = test system: cytosolic Ca2+ in C. albicans biofilm; assay: Cytosolic Ca2+, Fura-2 Calcium Flux Assay; format: cell-based, Candida albicans; details: 10 mM, positive control, 3 h, 24-h biofilm
Procedure: Accumulation of cytosolic Ca^2+ was measured with the Fura-2 Calcium Flux Assay Kit (Abcam, Cambridge, Great Britain). The 24-h biofilms of C. albicans were incubated for 3 h with 100 μl of ΔM3 (25 μM and 50 μM) or ΔM4 (6.2 μM and 12.5 μM) and H2O2 (10 mM; positive control) solutions prepared in RPMI 1640. The concentration of peptides was chosen close to those for which the effect of apoptosis was obtained in experiments analyzing the activity of metacaspases. After incubation, biofilms were washed with Hanks Balanced Salt Solution (Biowest) with Pluronic® F127 Plus (Abcam). Then 100 μl of Fura-2 AM solution was added to the biofilms and incubated for 1 h at room temperature. The fluorescence was then measured using a Synergy H1 microplate reader with excitation at 340 nm and emission at 510 nm.

[3] = Candida albicans, read-out: IC90, compound acting alone
[4] = drug (compound a) in combination with ΔM3
[5] = drug (compound a) in combination with ΔM4

Row | Compound | IC90 (C. albicans cells; cells) [nM] | FICI (C. albicans cells) | IC90 (C. albicans cells; [3]) [nM] | FICa (C. albicans cells; [4]) | FICa (C. albicans cells; [5]) | further results
1 | NFFKRIRRAWKRIWKWIYSA [ΔM4] | 3100 | 0.370 |  |  |  | 
2 | C[C@@H]1[C@H](O)[C@@H](C)/C=C/C=C/C=C/C=C/C=C/C=C/C=C/[C@H](O[C@@H]2O[C@H](C)[C@@H](O)[C@H](N)[C@@H]2O)C[C@@H]2O[C@](O)(C[C@@H](O)C[C@@H](O)[C@H](O)CC[C@@H](O)C[C@@H](O)CC(=O)O[C@H]1C)C[C@H](O)[C@H]2C(=O)O [Amphotericin B, amphotericin B] |  |  | 1600 | 0.5 | 0.5 | mitochondrial activity (MitoTracker Orange fluorescence) [1]: partial loss of mitochondrial activity
3 | OC(Cn1cncn1)(Cn1cncn1)c1ccc(F)cc1F [Fluconazole, fluconazole] |  |  | 800 | 0.25 | 0.25 | IC90 in combination with each peptide compared to administered alone (C. albicans cells; combination with ΔM3 or ΔM4): four-fold lower
4 | NFFKRIRRAGKRIRKAIISA [ΔM3] | 50000 | 0.062 |  |  |  | hemolytic activity (human erythrocytes): low
5 | OO [H2O2] |  |  |  |  |  | increase in cytosolic Ca2+ concentration [2]: up to 50%
6 | CC[C@H](C)C[C@H](C)CCCCCCCCC(=O)N[C@H]1C[C@@H](O)[C@@H](NCCN)NC(=O)[C@@H]2[C@@H](O)CCN2C(=O)[C@H]([C@H](O)CCN)NC(=O)[C@H]([C@H](O)[C@@H](O)c2ccc(O)cc2)NC(=O)[C@@H]2C[C@@H](O)CN2C(=O)[C@H]([C@@H](C)O)NC1=O [Caspofungin, caspofungin] |  |  | 100 | 0.03 | 0.12 | 
